According to the NIST ThermoML archive (doi:10.1021/je7003758):
± gives the expanded uncertainty stated by the source.

Test: xn = mol fraction of the nth substance listed
Conditions: 298.15 K, Liquid

ClCCCCCCCl [1,6-dichlorohexane] + CN1CCCC1=O
mass density [kg/m3]
Conditions | x2 = 0.1182 | x2 = 0.2016 | x2 = 0.3079 | x2 = 0.4114 | x2 = 0.5049 | x2 = 0.6008 | x2 = 0.7023 | x2 = 0.8009 | x2 = 0.8972
100 kPa | 1060.7 ± 1.2 | 1058.4 ± 1.1 | 1055.4 ± 1 | 1052 ± 0.8 | 1049 ± 0.7 | 1045.6 ± 0.7 | 1041.6 ± 0.6 | 1037.5 ± 0.5 | 1033.1 ± 0.5
500 kPa | 1060.9 ± 1.2 | 1058.7 ± 1.1 | 1055.6 ± 1 | 1052.3 ± 0.8 | 1049.2 ± 0.7 | 1045.8 ± 0.7 | 1041.8 ± 0.6 | 1037.7 ± 0.5 | 1033.4 ± 0.5
1000 kPa | 1061.3 ± 1.2 | 1059.1 ± 1.1 | 1056 ± 1 | 1052.6 ± 0.9 | 1049.5 ± 0.8 | 1046.1 ± 0.7 | 1042.1 ± 0.6 | 1038 ± 0.5 | 1033.6 ± 0.5
1500 kPa | 1061.6 ± 1.2 | 1059.4 ± 1.1 | 1056.3 ± 1 | 1052.9 ± 0.9 | 1049.8 ± 0.8 | 1046.4 ± 0.7 | 1042.4 ± 0.6 | 1038.3 ± 0.5 | 1033.9 ± 0.5
2000 kPa | 1062 ± 1.2 | 1059.7 ± 1.1 | 1056.6 ± 1 | 1053.3 ± 0.9 | 1050.1 ± 0.8 | 1046.7 ± 0.7 | 1042.7 ± 0.6 | 1038.6 ± 0.5 | 1034.2 ± 0.5
2500 kPa | 1062.3 ± 1.2 | 1060 ± 1.1 | 1056.9 ± 1 | 1053.6 ± 0.9 | 1050.5 ± 0.8 | 1047 ± 0.7 | 1043 ± 0.6 | 1038.9 ± 0.5 | 1034.4 ± 0.5
3000 kPa | 1062.6 ± 1.3 | 1060.4 ± 1.1 | 1057.3 ± 1 | 1053.9 ± 0.9 | 1050.8 ± 0.8 | 1047.3 ± 0.7 | 1043.3 ± 0.6 | 1039.1 ± 0.5 | 1034.7 ± 0.5
3500 kPa | 1063 ± 1.3 | 1060.8 ± 1.2 | 1057.6 ± 1 | 1054.3 ± 0.9 | 1051.1 ± 0.8 | 1047.6 ± 0.7 | 1043.6 ± 0.6 | 1039.4 ± 0.6 | 1035 ± 0.5
4000 kPa | 1063.3 ± 1.3 | 1061.1 ± 1.2 | 1057.9 ± 1 | 1054.6 ± 0.9 | 1051.4 ± 0.8 | 1047.9 ± 0.7 | 1043.9 ± 0.6 | 1039.7 ± 0.6 | 1035.3 ± 0.5
4500 kPa | 1063.7 ± 1.3 | 1061.4 ± 1.2 | 1058.3 ± 1 | 1054.9 ± 0.9 | 1051.7 ± 0.8 | 1048.2 ± 0.7 | 1044.2 ± 0.6 | 1040 ± 0.6 | 1035.5 ± 0.5
5000 kPa | 1064 ± 1.3 | 1061.8 ± 1.2 | 1058.6 ± 1.1 | 1055.2 ± 0.9 | 1052 ± 0.8 | 1048.5 ± 0.7 | 1044.4 ± 0.7 | 1040.3 ± 0.6 | 1035.8 ± 0.5
5500 kPa | 1064.4 ± 1.3 | 1062.1 ± 1.2 | 1058.9 ± 1.1 | 1055.5 ± 0.9 | 1052.4 ± 0.8 | 1048.9 ± 0.7 | 1044.7 ± 0.7 | 1040.5 ± 0.6 | 1036.1 ± 0.5
5900 kPa | – | – | – | – | – | 1049.2 ± 0.8 | – | – | –
6000 kPa | 1064.7 ± 1.3 | 1062.4 ± 1.2 | 1059.4 ± 1.1 | 1055.8 ± 1 | 1052.7 ± 0.9 | – | 1045 ± 0.7 | 1040.8 ± 0.6 | 1036.4 ± 0.5
6500 kPa | 1065 ± 1.3 | 1062.8 ± 1.2 | 1059.6 ± 1.1 | 1056.1 ± 1 | 1053 ± 0.9 | 1049.4 ± 0.8 | 1045.3 ± 0.7 | 1041.1 ± 0.6 | 1036.6 ± 0.5
7000 kPa | 1065.4 ± 1.4 | 1063.1 ± 1.2 | 1059.9 ± 1.1 | 1056.5 ± 1 | 1053.3 ± 0.9 | 1049.7 ± 0.8 | 1045.6 ± 0.7 | 1041.4 ± 0.6 | 1036.9 ± 0.5
7500 kPa | 1065.7 ± 1.4 | 1063.5 ± 1.2 | 1060.2 ± 1.1 | – | 1053.6 ± 0.9 | 1050 ± 0.8 | 1045.9 ± 0.7 | 1041.7 ± 0.6 | 1037.2 ± 0.5
7600 kPa | – | – | – | 1056.7 ± 1 | – | – | – | – | –
8000 kPa | 1066.1 ± 1.4 | 1063.7 ± 1.3 | 1060.5 ± 1.1 | 1057.1 ± 1 | 1054 ± 0.9 | 1050.3 ± 0.8 | 1046.2 ± 0.7 | 1041.9 ± 0.6 | 1037.4 ± 0.6
8500 kPa | 1066.5 ± 1.4 | 1064 ± 1.3 | 1060.8 ± 1.1 | 1057.4 ± 1 | 1054.2 ± 0.9 | 1050.6 ± 0.8 | 1046.5 ± 0.7 | 1042.2 ± 0.6 | 1037.8 ± 0.6
8900 kPa | 1066.7 ± 1.4 | – | – | – | – | – | – | – | –
9000 kPa | – | 1064.4 ± 1.3 | 1061.2 ± 1.1 | 1057.7 ± 1 | 1054.5 ± 0.9 | 1050.9 ± 0.8 | 1046.8 ± 0.7 | 1042.5 ± 0.6 | 1038 ± 0.6
9500 kPa | 1067 ± 1.4 | 1064.8 ± 1.3 | 1061.5 ± 1.2 | 1058 ± 1 | 1054.9 ± 0.9 | 1051.2 ± 0.8 | 1047.1 ± 0.7 | 1042.8 ± 0.6 | 1038.2 ± 0.6
10000 kPa | 1067.4 ± 1.4 | 1065.2 ± 1.3 | 1061.9 ± 1.2 | 1058.4 ± 1 | 1055.2 ± 0.9 | 1051.6 ± 0.8 | 1047.4 ± 0.7 | 1043.1 ± 0.7 | 1038.6 ± 0.6
10500 kPa | 1067.8 ± 1.4 | 1065.4 ± 1.3 | 1062.2 ± 1.2 | 1058.7 ± 1 | 1055.6 ± 0.9 | 1051.9 ± 0.8 | 1047.7 ± 0.7 | 1043.4 ± 0.7 | 1038.8 ± 0.6
11000 kPa | 1068.1 ± 1.5 | 1065.8 ± 1.3 | 1062.5 ± 1.2 | 1059 ± 1.1 | 1055.9 ± 1 | 1052.2 ± 0.9 | 1048 ± 0.8 | 1043.6 ± 0.7 | 1039.1 ± 0.6
11500 kPa | 1068.4 ± 1.5 | 1066.1 ± 1.3 | 1062.8 ± 1.2 | 1059.3 ± 1.1 | 1056.2 ± 1 | 1052.4 ± 0.9 | 1048.2 ± 0.8 | 1044 ± 0.7 | 1039.3 ± 0.6
12000 kPa | 1068.8 ± 1.5 | 1066.4 ± 1.4 | 1063.1 ± 1.2 | 1059.6 ± 1.1 | 1056.4 ± 1 | 1052.7 ± 0.9 | 1048.5 ± 0.8 | 1044.2 ± 0.7 | 1039.6 ± 0.6
12500 kPa | 1069.1 ± 1.5 | 1066.7 ± 1.4 | 1063.5 ± 1.2 | 1059.9 ± 1.1 | 1056.7 ± 1 | 1053 ± 0.9 | 1048.8 ± 0.8 | 1044.5 ± 0.7 | 1039.8 ± 0.6
13000 kPa | 1069.4 ± 1.5 | 1067 ± 1.4 | 1063.8 ± 1.2 | 1060.3 ± 1.1 | 1057 ± 1 | 1053.3 ± 0.9 | 1049.2 ± 0.8 | 1044.8 ± 0.7 | 1040.1 ± 0.6
13400 kPa | – | – | – | – | – | – | 1049.5 ± 0.8 | – | –
13500 kPa | 1069.7 ± 1.5 | 1067.4 ± 1.4 | 1064.1 ± 1.3 | 1060.6 ± 1.1 | 1057.3 ± 1 | 1053.6 ± 0.9 | – | 1045.1 ± 0.7 | 1040.4 ± 0.6
13900 kPa | – | – | – | – | 1057.6 ± 1 | – | – | – | –
14000 kPa | 1070 ± 1.5 | 1067.6 ± 1.4 | 1064.4 ± 1.3 | 1060.9 ± 1.1 | – | 1053.9 ± 0.9 | 1049.7 ± 0.8 | 1045.3 ± 0.7 | 1040.6 ± 0.6
14400 kPa | – | – | – | – | – | – | – | 1045.6 ± 0.7 | –
14500 kPa | 1070.4 ± 1.5 | 1068 ± 1.4 | 1064.7 ± 1.3 | 1061.2 ± 1.1 | 1057.9 ± 1 | 1054.2 ± 0.9 | 1050 ± 0.8 | – | 1041 ± 0.7
15000 kPa | 1070.7 ± 1.6 | 1068.3 ± 1.4 | 1065 ± 1.3 | 1061.5 ± 1.2 | 1058.2 ± 1 | 1054.5 ± 0.9 | 1050.3 ± 0.8 | 1045.9 ± 0.7 | 1041.2 ± 0.7
15400 kPa | – | – | – | 1061.8 ± 1.2 | – | – | – | – | –
15500 kPa | 1071 ± 1.6 | 1068.6 ± 1.5 | 1065.4 ± 1.3 | – | 1058.5 ± 1.1 | 1054.8 ± 0.9 | 1050.6 ± 0.8 | 1046.2 ± 0.8 | 1041.4 ± 0.7
16000 kPa | 1071.4 ± 1.6 | 1069 ± 1.5 | 1065.6 ± 1.3 | 1062 ± 1.2 | 1058.8 ± 1.1 | 1055.1 ± 1 | 1050.8 ± 0.9 | 1046.4 ± 0.8 | 1041.7 ± 0.7
16500 kPa | 1071.7 ± 1.6 | 1069.2 ± 1.5 | 1065.9 ± 1.3 | 1062.4 ± 1.2 | 1059.1 ± 1.1 | 1055.4 ± 1 | 1051 ± 0.9 | 1046.6 ± 0.8 | 1041.9 ± 0.7
16900 kPa | – | – | 1066.2 ± 1.3 | – | – | – | – | – | –
17000 kPa | 1072 ± 1.6 | 1069.6 ± 1.5 | – | 1062.7 ± 1.2 | 1059.4 ± 1.1 | 1055.6 ± 1 | 1051.3 ± 0.9 | 1046.9 ± 0.8 | 1042.2 ± 0.7
17500 kPa | 1072.3 ± 1.6 | 1069.8 ± 1.5 | 1066.5 ± 1.4 | – | 1059.7 ± 1.1 | 1055.9 ± 1 | 1051.6 ± 0.9 | 1047.2 ± 0.8 | 1042.5 ± 0.7
17600 kPa | – | – | – | 1063 ± 1.2 | – | – | – | – | –
17900 kPa | 1072.6 ± 1.6 | – | – | – | – | 1056.2 ± 1 | – | – | –
18000 kPa | – | 1070.2 ± 1.5 | 1066.7 ± 1.4 | 1063.3 ± 1.2 | 1059.9 ± 1.1 | – | 1051.8 ± 0.9 | 1047.5 ± 0.8 | 1042.7 ± 0.7
18400 kPa | – | – | – | – | – | – | – | 1047.6 ± 0.8 | –
18500 kPa | 1072.9 ± 1.7 | 1070.5 ± 1.5 | 1067.1 ± 1.4 | 1063.5 ± 1.2 | 1060.2 ± 1.1 | 1056.5 ± 1 | 1052.1 ± 0.9 | – | 1043 ± 0.7
19000 kPa | 1073.3 ± 1.7 | 1070.8 ± 1.5 | 1067.4 ± 1.4 | 1063.9 ± 1.3 | 1060.6 ± 1.1 | 1056.8 ± 1 | 1052.4 ± 0.9 | 1048 ± 0.8 | 1043.2 ± 0.7
19400 kPa | – | – | 1067.7 ± 1.4 | 1064.1 ± 1.3 | – | – | – | – | –
19500 kPa | 1073.6 ± 1.7 | 1071.1 ± 1.6 | – | – | 1060.9 ± 1.2 | 1057 ± 1 | 1052.8 ± 0.9 | 1048.2 ± 0.8 | 1043.5 ± 0.7
20000 kPa | 1073.9 ± 1.7 | 1071.4 ± 1.6 | 1068.2 ± 1.4 | – | 1061.2 ± 1.2 | 1057.5 ± 1.1 | 1053 ± 0.9 | 1048.7 ± 0.8 | 1043.8 ± 0.7
20100 kPa | – | – | – | 1064.5 ± 1.3 | – | – | – | – | –
